This is an account of results in patent publication US6552176B2, “Salt forms of 6-n-butylamino-6-deoxy-α-L-sorbofuranose” (G. D. Searle & Co., priority 1990, dated 2003).

Structures are written as SMILES.

The nature of data set [1]: Autoclaving of N-butylglucamine reaction solution, HPLC comparison before and after. It counts as physicochemical. As to conditions: 5% (weight/volume) solution, 20 mM MgSO4, pH 5.0; 121° C., 30 P.S.I., 30 minutes. On the procedure: The reaction solution can also be sterilized by autoclaving, as described below. A 5% (weight/volume) solution of N-butylglucamine containing 20 mM MgSO4, at pH 5.0, was autoclaved in a 500 ml shake flask with a silicon closure in place. The conditions for autoclaving were 121° C., 30 P.S.I., for 30 minutes. The pH was checked afterwards and found to be 5.0 at room temperature. There was no visible change in the color or the clarity of the solution, an indication that no caramelization or precipitation had occurred. […] Controls (not autoclaved) indicated at least 90% conversion at 48 hours, also. Autoclaving can therefore be used as a method for sterilizing the reaction solution.

For data set [2] the following is noted: cited from earlier work.

Take `CCCCNC[C@H](O)[C@@H](O)[C@H](O)[C@H](O)CO` [N-butylglucamine]: in data set [1], the “stability of solution to autoclaving (HPLC before vs after)” value is “the same”. As to `CCCCN` [N-n-butylamine], the “exposure concentration producing nose and throat irritation” value in data set [2] (exposure to as little as) is 5-10 ppm. In data set [2] (supplier MSDS (Fisher Scientific)), the “hazard description per Material Safety Data Sheets” value is “toxic and a severe eye, skin and mucous membrane irritant”.
